Experimental data published in PMC10033419, “Blocking NS3–NS4B interaction inhibits dengue virus in non-human primates” (Nature, 2023).
“And” between values parts separate entries of the source, which are not always exact repeats. Equal entries are not always repeated. Where two headings read alike, the source gives them in different places.

Tested on: DENV-2 RL
Assay: microbe, parasite or virus in culture
Format: cell-based

`COc1cc(N[C@H](C(=O)c2c[nH]c3ccc(OC(F)(F)F)cc23)c2ccc(Cl)cc2OC)cc(S(C)(=O)=O)c1` [JNJ-1802] showed an EC50 (A sample, passage 20, read-out: EC50 values Ave) of 32.2 nM, an EC50 (A sample, passage 21, read-out: EC50 values Ave) of 32.2 nM and an EC50 (A sample, passage 22, read-out: EC50 values Ave) of 32.2 nM. It also gave an EC50 (A sample, passage 23, read-out: EC50 values Ave) of 32.2 nM, an EC50 (B sample, passage 29, read-out: EC50 values Ave) of 32.2 nM and an EC50 (B sample, passage 30, read-out: EC50 values Ave) of 32.2 nM. It also gave an EC50 (Dengue virus, DENV2, Vero, read-out: EC50 by microscopic evaluation of CPE, experiment A, passage 0) of 0.06 nM, an EC50 (Dengue virus, DENV2, Vero, read-out: EC50 by microscopic evaluation of CPE, experiment A, passage 5) of 0.06 nM and an EC50 (Dengue virus, DENV2, Vero, read-out: EC50 by microscopic evaluation of CPE, experiment A, passage 10) of 0.25 nM. The EC50 (Dengue virus, DENV2, Vero, read-out: EC50 by microscopic evaluation of CPE, experiment A, passage 15) was 1 nM, the EC50 (Dengue virus, DENV2, Vero, read-out: EC50 by microscopic evaluation of CPE, experiment A, passage 25) was 64 nM and the EC50 (Dengue virus, DENV2, Vero, read-out: EC50 by microscopic evaluation of CPE, experiment A, passage 30) was 260 nM. For the same molecule, the EC50 (Dengue virus, DENV2, Vero, read-out: EC50 by microscopic evaluation of CPE, experiment A, passage 35) was 260 nM, the EC50 (Dengue virus, DENV2, Vero, read-out: EC50 by microscopic evaluation of CPE, experiment A, passage 40) was 1290 nM and the EC50 (Dengue virus, DENV2, Vero, read-out: EC50 by microscopic evaluation of CPE, experiment A, passage 42) was 1290 nM. The EC50 (Dengue virus, DENV2, Vero, read-out: EC50 by microscopic evaluation of CPE, experiment B, passage 0) was 0.06 nM, the EC50 (Dengue virus, DENV2, Vero, read-out: EC50 by microscopic evaluation of CPE, experiment B, passage 5) was 0.06 nM and the EC50 (Dengue virus, DENV2, Vero, read-out: EC50 by microscopic evaluation of CPE, experiment B, passage 20) was 0.5 nM. The EC50 (Dengue virus, DENV2, Vero, read-out: EC50 by microscopic evaluation of CPE, experiment B, passage 25) was 4 nM, the EC50 (Dengue virus, DENV2, Vero, read-out: EC50 by microscopic evaluation of CPE, experiment B, passage 35) was 80 nM and the EC50 (Dengue virus, DENV2, Vero, read-out: EC50 by microscopic evaluation of CPE, experiment B, passage 45) was 640 nM. The EC50 (Dengue virus, DENV2, Vero, read-out: EC50 by microscopic evaluation of CPE, experiment B, passage 50) was 1290 nM, the EC50 (Dengue virus, DENV2, Vero, read-out: EC50 values Ave, A sample, passage 1) was 3.7e-05 µg/mL and 0.063 nM and the EC50 (Dengue virus, DENV2, Vero, read-out: EC50 values Ave, A sample, passage 2) was 3.7e-05 µg/mL and 0.063 nM. The EC50 (Dengue virus, DENV2, Vero, read-out: EC50 values Ave, A sample, passage 3) was 3.7e-05 µg/mL and 0.063 nM, the EC50 (Dengue virus, DENV2, Vero, read-out: EC50 values Ave, A sample, passage 4) was 3.7e-05 µg/mL and 0.063 nM and the EC50 (Dengue virus, DENV2, Vero, read-out: EC50 values Ave, A sample, passage 5) was 3.7e-05 µg/mL and 0.063 nM. For the same molecule, the EC50 (Dengue virus, DENV2, Vero, read-out: EC50 values Ave, A sample, passage 6) was 0.126 nM, the EC50 (Dengue virus, DENV2, Vero, read-out: EC50 values Ave, A sample, passage 7) was 3.7e-05 µg/mL and 0.063 nM and the EC50 (Dengue virus, DENV2, Vero, read-out: EC50 values Ave, A sample, passage 8) was 3.7e-05 µg/mL and 0.063 nM. For the same molecule, the EC50 (Dengue virus, DENV2, Vero, read-out: EC50 values Ave, A sample, passage 9) was 0.126 nM, the EC50 (Dengue virus, DENV2, Vero, read-out: EC50 values Ave, A sample, passage 10) was 0.000146 µg/mL and 0.251 nM and the EC50 (Dengue virus, DENV2, Vero, read-out: EC50 values Ave, A sample, passage 11) was 0.000146 µg/mL and 0.251 nM. The EC50 (Dengue virus, DENV2, Vero, read-out: EC50 values Ave, A sample, passage 12) was 0.000146 µg/mL and 0.251 nM, the EC50 (Dengue virus, DENV2, Vero, read-out: EC50 values Ave, A sample, passage 13) was 0.000293 µg/mL and 0.503 nM and the EC50 (Dengue virus, DENV2, Vero, read-out: EC50 values Ave, A sample, passage 14) was 1.01 nM. For the same molecule, the EC50 (Dengue virus, DENV2, Vero, read-out: EC50 values Ave, A sample, passage 15) was 1.01 nM, the EC50 (Dengue virus, DENV2, Vero, read-out: EC50 values Ave, A sample, passage 16) was 0.00117 µg/mL and 2.01 nM and the EC50 (Dengue virus, DENV2, Vero, read-out: EC50 values Ave, A sample, passage 17) was 0.00234 µg/mL and 4.02 nM. The EC50 (Dengue virus, DENV2, Vero, read-out: EC50 values Ave, A sample, passage 18) was 0.00469 µg/mL and 8.04 nM, the EC50 (Dengue virus, DENV2, Vero, read-out: EC50 values Ave, A sample, passage 24) was 0.0375 µg/mL and 64.3 nM and the EC50 (Dengue virus, DENV2, Vero, read-out: EC50 values Ave, A sample, passage 25) was 0.0375 µg/mL and 64.3 nM. For the same molecule, the EC50 (Dengue virus, DENV2, Vero, read-out: EC50 values Ave, A sample, passage 26) was 129 nM, the EC50 (Dengue virus, DENV2, Vero, read-out: EC50 values Ave, A sample, passage 27) was 0.15 µg/mL and 257 nM and the EC50 (Dengue virus, DENV2, Vero, read-out: EC50 values Ave, A sample, passage 28) was 0.15 µg/mL and 257 nM. For the same molecule, the EC50 (Dengue virus, DENV2, Vero, read-out: EC50 values Ave, A sample, passage 29) was 0.15 µg/mL and 257 nM, the EC50 (Dengue virus, DENV2, Vero, read-out: EC50 values Ave, A sample, passage 30) was 0.15 µg/mL and 257 nM and the EC50 (Dengue virus, DENV2, Vero, read-out: EC50 values Ave, A sample, passage 31) was 129 nM. For the same molecule, the EC50 (Dengue virus, DENV2, Vero, read-out: EC50 values Ave, A sample, passage 32) was 129 nM, the EC50 (Dengue virus, DENV2, Vero, read-out: EC50 values Ave, A sample, passage 33) was 0.15 µg/mL and 257 nM and the EC50 (Dengue virus, DENV2, Vero, read-out: EC50 values Ave, A sample, passage 34) was 0.15 µg/mL and 257 nM. For the same molecule, the EC50 (Dengue virus, DENV2, Vero, read-out: EC50 values Ave, A sample, passage 35) was 0.15 µg/mL and 257 nM, the EC50 (Dengue virus, DENV2, Vero, read-out: EC50 values Ave, A sample, passage 36) was 0.15 µg/mL and 257 nM and the EC50 (Dengue virus, DENV2, Vero, read-out: EC50 values Ave, A sample, passage 37) was 0.3 µg/mL and 515 nM. The EC50 (Dengue virus, DENV2, Vero, read-out: EC50 values Ave, A sample, passage 38) was 0.3 µg/mL and 515 nM, the EC50 (Dengue virus, DENV2, Vero, read-out: EC50 values Ave, A sample, passage 39) was 1290 nM and the EC50 (Dengue virus, DENV2, Vero, read-out: EC50 values Ave, A sample, passage 40) was 1290 nM. The EC50 (Dengue virus, DENV2, Vero, read-out: EC50 values Ave, A sample, passage 41) was 1290 nM, the EC50 (Dengue virus, DENV2, Vero, read-out: EC50 values Ave, A sample, passage 42 (END)) was 1290 nM and the EC50 (Dengue virus, DENV2, Vero, read-out: EC50 values Ave, B sample, passage 1) was 3.7e-05 µg/mL and 0.063 nM. The EC50 (Dengue virus, DENV2, Vero, read-out: EC50 values Ave, B sample, passage 2) was 3.7e-05 µg/mL and 0.063 nM, the EC50 (Dengue virus, DENV2, Vero, read-out: EC50 values Ave, B sample, passage 3) was 3.7e-05 µg/mL and 0.063 nM and the EC50 (Dengue virus, DENV2, Vero, read-out: EC50 values Ave, B sample, passage 4) was 3.7e-05 µg/mL and 0.063 nM. For the same molecule, the EC50 (Dengue virus, DENV2, Vero, read-out: EC50 values Ave, B sample, passage 5) was 3.7e-05 µg/mL and 0.063 nM, the EC50 (Dengue virus, DENV2, Vero, read-out: EC50 values Ave, B sample, passage 6) was 0.126 nM and the EC50 (Dengue virus, DENV2, Vero, read-out: EC50 values Ave, B sample, passage 7) was 0.126 nM.
